# US20060069132A1, “Azolecarboxamide herbicides” (priority 2004, published 2006)
# Legend:
# cocklebur = assay: Test C pre-/postemergence herbicide test; assay type: in vivo, Xanthium strumarium; conditions: for Cocklebur plant response rating: 500 g ai/ha
# Procedure, shortened: (§1)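 Visual ratings on a 0–100 scale (100 = complete control) made versus untreated controls after 12 to 14 greenhouse days. Test chemicals, formulated in surfactant-containing non-phytotoxic solvent, applied preemergence to planted seeds or postemergence to 1- to 4-leaf plants (2 to 18 cm).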
# [1] = tested on: common (oilseed) sunflower; assay: Test C pre-/postemergence herbicide test; assay type: in vivo, Helianthus annuus; conditions: for Sunflower plant response rating: Preemergence, scale 0 to 100, 0 no effect, 100 complete control
# Procedure, shortened: as §1
# lambsquarters = assay: Test C pre-/postemergence herbicide test; assay type: in vivo, Chenopodium album
# Procedure, shortened: as §1
# yellow nutsedge = assay: Test C pre-/postemergence herbicide test; assay type: in vivo, Cyperus esculentus
# Procedure, shortened: as §1
# rice [2] = assay: Test B pre-/postemergence herbicide test; assay type: in vivo, Oryza sativa
# Procedure, shortened: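 Greenhouse pot assay with simultaneous preemergence (treated seed) and postemergence (2–18 cm seedlings) applications of surfactant-containing, non-phytotoxic solvent formulations. Response scored visually 13–15 days later on a 0–100 scale, 100 meaning complete control.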
# soybean = assay: Test C pre-/postemergence herbicide test; assay type: in vivo, Glycine max
# Procedure, shortened: as §1
# common ragweed = assay: Test C pre-/postemergence herbicide test; assay type: in vivo, Ambrosia elatior; parameters: key to Plant response rating, Ragweed: 0 = no effect, 100 = complete control
# Procedure, shortened: as §1
# rice [3] = assay: Test C flooded paddy test; assay type: in vivo, Oryza sativa; conditions: for Plant response rating, Rice: 500 g ai/ha, visual rating after 12 to 14 days
# Procedure, shortened: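 Injury scored visually against controls on a 0 (no effect) to 100 (complete control) scale, 12 to 14 days after treatment in greenhouse. Flooded paddy plants treated at 2-leaf stage; postemergence plants at 1- to 4-leaf stage, 2 to 18 cm tall.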
# [4] = 125 g ai/ha, scale 0 (no effect) to 100 (complete control), visual, 12 to 14 days, preemergence
# [5] = 250 g ai/ha, scale 0 to 100 (0 no effect, 100 complete control), visual, 12 to 14 days, preemergence
# [6] = Postemergence, 250 g ai/ha, scale 0 to 100, 0 no effect, 100 complete control
# [7] = Preemergence, scale 0 to 100, 0 no effect, 100 complete control
# [8] = postemergence, 62 g ai/ha, scale 0 to 100
# [9] = Postemergence, 500 g ai/ha, scale 0 to 100
# [10] = Preemergence, 500 g ai/ha, scale 0 to 100, 0 no effect, 100 complete control
# [11] = preemergence, 125 g ai/ha, 0 to 100 scale, 0 is no effect, 100 is complete control
# [12] = 62 g ai/ha, preemergence, scale 0 to 100
# [13] = 250 g ai/ha, scale 0-100, preemergence
# [14] = postemergence, 125 g ai/ha, scale 0 to 100
# [15] = 500 g ai/ha, scale 0 to 100 (0 no effect, 100 complete control), visual, 12 to 14 days, preemergence
# [16] = 500 g ai/ha, visual rating, 0 = no effect, 100 = complete control, preemergence
# [17] = 125 g ai/ha, scale 0 to 100 (0 no effect, 100 complete control)
# [18] = 250 g ai/ha, scale of 0 to 100, 0 is no effect, 100 is complete control
# [19] = scale 0 to 100 (0 no effect, 100 complete control)
structure (smiles),measurement,setting,value
C#CCn1nc(C(C)(C)C)cc1C(=O)Nc1cccc(C(=O)NCC)c1 [Compound 50],"Plant response rating (0 = no effect, 100 = complete control), Cocklebur","cocklebur; 62 g ai/ha, preemergence",0
same,"Plant response rating, Cocklebur",cocklebur; [4],10
same,"Plant response rating, Cocklebur",cocklebur; [5],80
same,Cocklebur plant response rating,"cocklebur; Postemergence, scale 0 to 100",10
same,"Plant response rating, Cocklebur","cocklebur; Postemergence, 125 g ai/ha, scale 0 to 100, 0 no effect, 100 complete control",10
same,"Plant response rating, Cocklebur",cocklebur; [6],10
same,Cocklebur plant response rating,cocklebur; [7],80
same,"Plant response rating, Cocklebur",cocklebur; [8],10
same,"Plant response rating (0 = no effect, 100 = complete control), Sunflower","[1]; 62 g ai/ha, preemergence",0
same,"Plant response rating, Sunflower",[1]; [4],0
same,"Plant response rating, Sunflower",[1]; [5],0
same,Sunflower plant response rating,[1]; 500 g ai/ha,0
same,"Plant response rating (0 = no effect, 100 = complete control), Lambsquarters","lambsquarters; 62 g ai/ha, preemergence",85
same,"Plant response rating, Lambsquarters",lambsquarters; [4],85
same,"Plant response rating, Lambsquarters",lambsquarters; [5],100
same,Lambsquarters plant response rating,lambsquarters; [9],0
same,"Plant response rating, Lambsquarters",lambsquarters; [6],0
same,Lambsquarters plant response rating,lambsquarters; [10],100
same,"Plant response rating, Lambsquarters",lambsquarters; [8],0
same,"Plant response rating (0 = no effect, 100 = complete control), Nutsedge, Yellow","yellow nutsedge; 62 g ai/ha, preemergence",0
same,"Plant response rating, Nutsedge, Yellow",yellow nutsedge; [4],10
same,"Plant response rating, Nutsedge, Yellow",yellow nutsedge; [5],40
same,"Nutsedge, Yellow plant response rating",yellow nutsedge; [10],80
same,Rice plant response rating,"rice [2]; Preemergence, 500 g ai/ha, scale 0 to 100",50
same,"Plant response rating, Rice",rice [2]; [11],10
same,"Plant response rating (0 = no effect, 100 = complete control), Soybean","soybean; 62 g ai/ha, preemergence",0
same,"Plant response rating, Soybean",soybean; [4],0
same,"Plant response rating, Soybean",soybean; [5],0
same,Soybean plant response rating,soybean; [9],100
same,"Plant response rating, Soybean",soybean; [6],100
same,Soybean plant response rating,soybean; [10],0
same,"Plant response rating, Soybean",soybean; [8],100
same,"Plant response rating (0 = no effect, 100 = complete control), Ragweed","common ragweed; 62 g ai/ha, preemergence",10
same,"Plant response rating, Ragweed",common ragweed; [4],40
same,"Plant response rating, Ragweed",common ragweed; [5],80
same,Ragweed plant response rating,common ragweed; [9],85
same,"Plant response rating, Ragweed",common ragweed; [6],85
same,Ragweed plant response rating,common ragweed; [10],100
same,"Plant response rating, Ragweed",common ragweed; [8],80
CCn1nc(C(C)(C)C)cc1C(=O)Nc1cccc(OC(F)F)c1 [Compound 332],"Plant response rating, Cocklebur",cocklebur; [12],0
same,"Plant response rating, Cocklebur",cocklebur; [4],0
same,"Plant response rating, Cocklebur",cocklebur; [13],0
same,Cocklebur plant response rating,"cocklebur; Postemergence, scale 0 to 100",15
same,"Plant response rating, Cocklebur",cocklebur; [6],10
same,Cocklebur plant response rating,cocklebur; [7],0
same,"Plant response rating, Cocklebur",cocklebur; [14],10
same,"Plant response rating, Cocklebur",cocklebur; [8],5
same,"Plant response rating, Sunflower",[1]; [12],0
same,"Plant response rating, Sunflower",[1]; [13],0
same,"Plant response rating, Sunflower",[1]; [15],0
same,"Plant response rating, Lambsquarters",lambsquarters; [12],100
same,"Plant response rating, Lambsquarters",lambsquarters; [4],100
same,"Plant response rating, Lambsquarters",lambsquarters; [13],100
same,"Plant response rating, Lambsquarters",lambsquarters; [15],100
same,Lambsquarters plant response rating,lambsquarters; [9],100
same,"Plant response rating, Lambsquarters",lambsquarters; [6],100
same,"Plant response rating, Lambsquarters",lambsquarters; [14],65
same,"Plant response rating, Lambsquarters",lambsquarters; [8],50
same,"Plant response rating, Nutsedge, Yellow",yellow nutsedge; [12],0
same,"Plant response rating, Nutsedge, Yellow",yellow nutsedge; [4],0
same,"Plant response rating, Nutsedge, Yellow",yellow nutsedge; [13],0
same,"Plant response rating, Nutsedge, Yellow",yellow nutsedge; [15],0
same,"Nutsedge, Yellow plant response rating",yellow nutsedge; [9],0
same,"Plant response rating, Nutsedge, Yellow",yellow nutsedge; [6],0
same,"Plant response rating, Nutsedge, Yellow",yellow nutsedge; [14],0
same,"Plant response rating, Nutsedge, Yellow",yellow nutsedge; [8],0
same,"Plant response rating (0 to 100 scale), Rice","rice [2]; 125 g ai/ha, 0 is no effect, 100 is complete control, preemergence",20
same,"Plant response rating, Rice",rice [2]; [16],40
same,Rice plant response rating,"rice [3]; 62 g ai/ha, scale 0 to 100",0
same,Rice plant response rating,rice [3]; [17],0
same,Rice plant response rating,rice [3]; [18],45
same,"Plant response rating, Rice",rice [3]; [19],70
same,"Plant response rating, Soybean",soybean; [12],0
same,"Plant response rating, Soybean",soybean; [13],0
same,"Plant response rating, Soybean",soybean; [15],10
same,Soybean plant response rating,soybean; [9],90
same,"Plant response rating, Soybean",soybean; [6],60
same,"Plant response rating, Soybean",soybean; [14],50
same,"Plant response rating, Soybean",soybean; [8],45
same,"Plant response rating, Ragweed",common ragweed; [12],0
same,"Plant response rating, Ragweed",common ragweed; [13],5
same,"Plant response rating, Ragweed",common ragweed; [15],70
same,Ragweed plant response rating,common ragweed; [9],60
same,"Plant response rating, Ragweed",common ragweed; [6],40
same,"Plant response rating, Ragweed",common ragweed; [14],30
same,"Plant response rating, Ragweed",common ragweed; [8],5
"CCn1nc(C(C)(C)C)cc1C(=O)Nc1cccc(C(N)=O)n1 [Compound 162, 6-[[[3-(1,1-dimethylethyl)-1-ethyl-1H-pyrazol-5-yl]carbonyl]amino]-2-pyridinecarboxamide]","Plant response rating, Cocklebur",cocklebur; [5],65
same,Cocklebur plant response rating,cocklebur; [7],75
same,"Plant response rating, Sunflower",[1]; [12],0
same,"Plant response rating, Sunflower",[1]; [4],15
same,Sunflower plant response rating,[1]; 500 g ai/ha,90
same,"Plant response rating, Lambsquarters",lambsquarters; [12],80
same,"Plant response rating, Lambsquarters",lambsquarters; [4],95
same,Lambsquarters plant response rating,lambsquarters; [10],100
same,"Plant response rating, Nutsedge, Yellow",yellow nutsedge; [12],0
same,"Plant response rating, Nutsedge, Yellow",yellow nutsedge; [4],20
same,"Nutsedge, Yellow plant response rating",yellow nutsedge; [10],60
same,"Plant response rating, Rice","rice [2]; 500 g ai/ha, visual rating 0-100, 0 no effect, 100 complete control, preemergence",90
same,"Plant response rating, Rice",rice [2]; [11],90
same,Rice plant response rating,"rice [3]; 62 g ai/ha, scale 0 to 100 (0 no effect, 100 complete control)",55
same,Rice plant response rating,rice [3]; [17],60
same,Rice plant response rating,rice [3]; [18],70
same,"Plant response rating, Rice",rice [3]; [19],75
same,"Plant response rating, Soybean",soybean; [12],15
same,"Plant response rating, Soybean",soybean; [4],75
same,Soybean plant response rating,soybean; [10],100
same,"Plant response rating, Ragweed",common ragweed; [12],95
same,"Plant response rating, Ragweed",common ragweed; [4],95
same,Ragweed plant response rating,common ragweed; [10],100
CCNC(=O)c1cccc(NC(=O)c2cc(C3(C)CC3)nn2CC)c1 [Compound 306],"Plant response rating, Cocklebur",cocklebur; [12],0
same,"Plant response rating, Cocklebur",cocklebur; [4],0
same,"Plant response rating, Cocklebur",cocklebur; [13],0
same,Cocklebur plant response rating,cocklebur; [7],5
same,"Plant response rating, Sunflower",[1]; [12],0
same,"Plant response rating, Sunflower",[1]; [13],0
same,"Plant response rating, Sunflower",[1]; [15],0
same,"Plant response rating, Lambsquarters",lambsquarters; [12],100
same,"Plant response rating, Lambsquarters",lambsquarters; [4],100
same,"Plant response rating, Lambsquarters",lambsquarters; [13],100
same,"Plant response rating, Lambsquarters",lambsquarters; [15],100
same,"Plant response rating, Nutsedge, Yellow",yellow nutsedge; [12],0
same,"Plant response rating, Nutsedge, Yellow",yellow nutsedge; [4],0
same,"Plant response rating, Nutsedge, Yellow",yellow nutsedge; [13],10
same,"Plant response rating, Nutsedge, Yellow",yellow nutsedge; [15],40
same,Rice plant response rating (0 to 100 scale),"rice [2]; 125 g ai/ha, 0 = no effect, 100 = complete control, preemergence",60
same,"Plant response rating, Rice",rice [2]; [16],80
same,Rice plant response rating,"rice [3]; 62 g ai/ha, scale 0 to 100",30
same,Rice plant response rating,rice [3]; [17],40
same,Rice plant response rating,rice [3]; [18],55
same,"Plant response rating, Rice",rice [3]; [19],70
same,"Plant response rating, Soybean",soybean; [12],5
same,"Plant response rating, Soybean",soybean; [13],15
same,"Plant response rating, Soybean",soybean; [15],40
same,"Plant response rating, Ragweed",common ragweed; [12],0
same,"Plant response rating, Ragweed",common ragweed; [15],100
